# According to article PMC9685055, “Biological activity of new bioactive steroids deriving from biotransformation of cortisone” (Microbial Cell Factories, 2022):
# Tests used:
# [1] = system: p65 NF-κB nuclear translocation in HaCaT cells; assay: TNFα-induced p65 NF-κB nuclear translocation, immunofluorescence; format: cell-based; conditions: 10 μM pretreatment 24 h, then 10 ng/mL TNFα 1 h
# Procedure: (§1) HaCaT cells were cultured with Dulbecco’s modified Eagle’s medium High Glucose (Lonza, Milan, Italy) supplemented with 10% FBS, 100 U/mL penicillin, 100 μg/mL streptomycin and 2 mM L-glutamine as previously described. Cells were maintained in a humidified incubator at 37 °C with 5% CO2 and incubated until the monolayer was 80% confluent. Medium was changed every 2 days.
# (§2) HaCaT cells were pretreated with or without 10 μM of both SCA and SCB for 24 h. Stock solutions of the two compounds were prepared in DMSO immediately before use and diluted to the final concentration in the culture medium. In some sets of experiments, betamethasone-17-valerate (10 µg/mL) served as a positive control; dimethyl sulfoxide (DMSO) served as a solvent control. After the pretreatments, cells were stimulated with 10 ng/mL TNFα for 1 h to induce the NFκB signaling pathway. Then, media were replaced with fresh culture medium. Cells and supernatants were collected at different time points for each set of experiments as described below.
# Briefly, HaCaT cells were seeded on coverslips at a density of 1 × 10^5 cell/mL and incubated with DMEM high glucose supplemented with FBS 10%. Then, HaCaT cells were treated as indicated above. At the end of the proinflammatory stimulus with TNFα, cells were fixed in 4% paraformaldehyde in PBS for 30 min at 4 °C as previously described. HaCaT cells were permeabilized for 5 min at RT with PBS containing 0.2% Triton X-100. After the blocking with 1% BSA in PBS at RT for 1 h, HaCaT cells were incubated with p65 NF-κB primary antibody (1:100, sc-372; Santa Cruz Biotechnology, Inc., Dallas, Texas, USA) in PBS containing 0.5% BSA at 4 °C overnight. After washing, coverslips were incubated with appropriate secondary antibody for 1 h at RT. Nuclei were stained with 1 μg/mL DAPI (Sigma- Aldrich, Italy) for 1 min. […] Fluorescence was examined using an Epifluorescence microscope (Nikon Eclipse E800; Nikon Corporation, Surrey, UK) equipped with a plan apochromat 100 × 0.5 − 1.3 oil immersion objective and a mercury lamp source.
# [2] = system: IL-8 gene expression in TNFα-stimulated HaCaT cells; assay: TNFα-induced IL-8 gene expression, real-time PCR; format: cell-based; conditions: 10 μM pretreatment 24 h, then 10 ng/mL TNFα 1 h
# Procedure: as §1, §2
# Quantitative real-time PCR was carried out as described in detail previously. Briefly, HaCaT cells were treated as indicated above and harvested for RNA extraction 3 h after the end of the proinflammatory stimulus with TNFα. […] Quantitative real-time PCR (qPCR) was performed using SYBR green on the CFX Multicolor real-time PCR detection system (Bio-Rad, Italy). […]
SMILES,effect on TNFα-stimulated translocation of p65 to the nucleus [1],effect on TNFα-triggered IL-8 mRNA upregulation [2]
"Cc1ccc(O)c2c1CCC1C3CC[C@](O)(C(=O)CO)[C@@]3(C)CC(=O)[C@@]21O (stereo partly drawn) [SCA, 1,9β,17,21‐tetrahydoxy‐4‐methyl‐19‐nor‐9β‐pregna‐1,3,5(10)‐trien‐11,20‐dione]",barely affected,completely abolish
"Cc1ccc(O)c2c1CCC1C3CC[C@](O)([C@H](O)CO)[C@@]3(C)CC(=O)[C@@]21O (stereo partly drawn) [SCB, 1,9β,17,20β,21‐ pentahydoxy‐4‐methyl‐19‐nor‐9β‐pregna‐1,3,5(10)‐trien‐11‐one]",showed the ability in counteracting the proinflammatory stimulus,completely abolish
